Test results published in patent publication US10233180B2, “Substituted nitrogen-containing heterocyclic derivatives, pharmaceutical compositions comprising the same and applications of antitumor thereof” (ZHEJIANG UNIVERSITY, priority 2014, dated 2019).

Assays:
[1] = target: T1, Akt1 (Homo sapiens, UniProt P31749); experiment: AKT1/PKBα KinEASE FP Fluorescein Green Assay (fluorescence polarization kinase kit); format: biochemical; settings: 1 h reaction, read-out: Inhibitory activities against Akt1 (IC50)
T1 construct: purchased 32-021
T1 sequence (P31749 whole entry): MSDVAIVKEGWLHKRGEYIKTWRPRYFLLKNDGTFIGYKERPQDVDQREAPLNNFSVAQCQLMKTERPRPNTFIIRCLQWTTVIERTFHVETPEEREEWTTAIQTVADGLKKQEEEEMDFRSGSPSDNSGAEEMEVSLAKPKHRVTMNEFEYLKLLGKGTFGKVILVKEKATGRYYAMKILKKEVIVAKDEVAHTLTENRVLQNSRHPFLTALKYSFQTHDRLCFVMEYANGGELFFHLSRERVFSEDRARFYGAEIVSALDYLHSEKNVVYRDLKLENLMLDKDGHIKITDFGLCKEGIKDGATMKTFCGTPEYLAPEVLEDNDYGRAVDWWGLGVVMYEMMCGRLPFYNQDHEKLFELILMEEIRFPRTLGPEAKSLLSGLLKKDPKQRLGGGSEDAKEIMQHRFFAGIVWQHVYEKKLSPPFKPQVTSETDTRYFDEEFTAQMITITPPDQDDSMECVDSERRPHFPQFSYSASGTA
Outline: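 FP competition kinase assay: compounds (50 μM stock) with STK Substrate 3 and ATP, 1 h reaction at room temperature; stopped with stop/antibody mix, 4 h at room temperature, then polarization read. Inhibition derived from polarization values; IC50 calculated; triplicate wells.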

[2] = tested on: Human ovarian cancer cell strain OVCAR-8; experiment: MTT assay, inhibition of tumor cell growth in vitro, 72 h; format: cell-based; settings: Homo sapiens, OVCAR-8, MTT, read-out: Antitumor proliferative activities of tumor cell (IC50, μM) OVCAR-8
Outline: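 OVCAR8 cells in RPMI 1640 plus FBS were seeded at 4000 cells/well and exposed for 72 h at 37 °C to compound at 50, 10, 2, 0.4 and 0.08 μM final, with 1% DMSO as blank. Inhibition was calculated from OD relative to control, and IC50 was derived by the Bliss method.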

[3] = tested on: human colon cancer cell strain HCT-116; experiment: as above; format: cell-based; settings: Homo sapiens, HCT-116, MTT, read-out: Antitumor proliferative activities of tumor cell (IC50, μM) HCT-116 (converted)
Outline: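 Cells in RPMI 1640 with FBS, 4000 cells/well, exposed 72 h at 37 °C, 5% CO2 to final 50, 10, 2, 0.4 and 0.08 μM; 1% DMSO blank. MTT OD gives % inhibition versus control; IC50 derived by Bliss method.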

SMILES	IC50 [1] [nM]	IC50 [2] [µM]	IC50 [3] [µM]
Cn1ncc(Cl)c1-c1cnc(C(=O)N[C@@H]2CNCC[C@H]2c2ccc(F)c(F)c2)c(F)c1 [Compound 97, 5-(4-chloro-1-methyl-1H-pyrazol-5-yl)-N-((3S,4S)-4-(3,4-difluorophenyl)piperidin-3-yl)-3-fluoropicolinamide]	8	4.89	4.14
Cc1cc(C(=O)N[C@@H]2CNCC[C@H]2c2ccc(F)c(F)c2)ncc1-c1c(Cl)cnn1C [Compound 94, 5-(4-chloro-1-methyl-1H-pyrazol-5-yl)-N-((3S,4S)-4-(3,4-difluorophenyl)piperidin-3-yl)-4-methylpicolinamide]	7	1.22	0.89
Cn1ncc(Cl)c1-c1ccc(C(=O)N[C@@H]2CNCC[C@H]2c2cccc3[nH]ccc23)cc1Cl [Compound 91, N-((3S,4S)-4-(1H-indol-4-yl)piperidin-3-yl)-3-chloro-4-(4-chloro-1-methyl-1H-pyrazol-5-yl)benzamide]	5	2.91	0.34
CNC(=O)CC1C[C@@H](c2ccc(Cl)c(Cl)c2)[C@H](NC(=O)c2cc(-c3c(Cl)cnn3C)c(Cl)o2)CN1 (stereo partly drawn) [Compound 118, 5-chloro-4-(4-chloro-1-methyl-1H-pyrazol-5-yl)-N-((3S,4S)-4-(3,4-dichlorophenyl)-6-(2-(methylamido)-2-oxoethyl)piperidin-3-yl)furan-2-formamide]	3	4.02	3.68
Cn1ncc(Cl)c1-c1ccc(C(=O)N[C@@H]2CNCC[C@H]2c2ccc(F)c(F)c2)cc1Cl [Compound 78, 3-chloro-4-(4-chloro-1-methyl-1H-pyrazol-5-yl)-N-((3S,4S)-4-(3,4-difluorophenyl)piperidin-3-yl)benzamide]	6	0.76	2.03
Cn1ncc(-c2ccccc2)c1-c1ccc(C(=O)N[C@@H]2CNCC[C@H]2c2ccc(F)c(F)c2)s1 [Compound 148, N-((3S, 4S)-4-(3,4-difluorophenyl)piperidin-3-yl)-5-(1-methyl-4-phenyl-1H-pyrazol-5-yl)thiophene-2-formamide]	5	0.67	1.23
Cn1ncc(Br)c1-c1csc(C(=O)N[C@H]2CNCC[C@@H]2c2ccc(Cl)cc2)c1 (racemic) [Compound 37, 4-(4-bromo-1-methyl-1H-pyrazol-5-yl)-N-(3,4-trans-4-(4-chlorphenyl)piperidin-3-yl)thiophene-2-formamide]	52	5.36	2.24
Cc1c(C(=O)N[C@H]2CNCC[C@@H]2C2CCCC(Cl)C2)sc(Cl)c1-c1ncnn1C (stereo partly drawn) [Compound 18]	18	5.69	1.83
